Experimental data published in PubChem BioAssay AID1259407 (Chemical Carcinogenesis Research Information System (CCRIS), 2018).
Activity calls are given as the source filed them. The rule behind the calls is not given here.

Tested on: CCRIS mutagenicity, Ames/micronucleus/aberration tests
Assay: CCRIS mutagenicity studies
Conditions: Test System: AMES SALMONELLA TYPHIMURIUM
[1] = Strain/Indicator: TA100, Metabolic Activation: NONE, Method: PREINCUBATION
[2] = Strain/Indicator: TA100, Metabolic Activation: NONE, Method: STANDARD PLATE
[3] = Strain/Indicator: TA1535, Metabolic Activation: NONE, Method: PREINCUBATION
[4] = Strain/Indicator: TA98, Metabolic Activation: NONE, Method: PREINCUBATION

Structure (SMILES): COc1ccc(CCC2CO2)cc1 (configuration not stated)
- mutagenic call [1]: active; positive
- mutagenic call [2]: active; positive
- mutagenic call [3]: active; positive
- mutagenic call (Strain/Indicator: TA1535, Metabolic Activation: NONE, Method: STANDARD PLATE): active; positive

Structure (SMILES): CC(=O)Oc1cc(C=O)cc2c1C(COC(N)=O)C1(OC(C)=O)ON2CC2C1N2C(C)=O (configuration not stated)
- mutagenic call [4]: inactive; negative
- mutagenic call (Strain/Indicator: TA98, Metabolic Activation: RAT, LIVER, S-9, PHENOBARBITAL AND 5,6-BENZOFLAVONE, Method: PREINCUBATION): inactive; negative
- mutagenic call [1]: inactive; negative
- mutagenic call (Strain/Indicator: TA100, Metabolic Activation: RAT, LIVER, S-9, PHENOBARBITAL AND 5,6-BENZOFLAVONE, Method: PREINCUBATION): inactive; negative
- mutagenic call (Strain/Indicator: TA102, Metabolic Activation: NONE, Method: PREINCUBATION): inactive; negative
- mutagenic call (Strain/Indicator: TA102, Metabolic Activation: RAT, LIVER, S-9, PHENOBARBITAL AND 5,6-BENZOFLAVONE, Method: PREINCUBATION): active; positive
- mutagenic call [3]: inactive; negative
- mutagenic call (Strain/Indicator: TA1535, Metabolic Activation: RAT, LIVER, S-9, PHENOBARBITAL AND 5,6-BENZOFLAVONE, Method: PREINCUBATION): inactive; negative
- mutagenic call (Strain/Indicator: TA1537, Metabolic Activation: NONE, Method: PREINCUBATION): inactive; negative
- mutagenic call (Strain/Indicator: TA1537, Metabolic Activation: RAT, LIVER, S-9, PHENOBARBITAL AND 5,6-BENZOFLAVONE, Method: PREINCUBATION): inactive; negative

Structure (SMILES): CC(=O)Nc1ccc(Oc2ccc([N+](=O)[O-])cc2)cc1
- mutagenic call (Strain/Indicator: TA98(1,8-DNP6), Metabolic Activation: NONE, Method: PREINCUBATION): inactive; negative
- mutagenic call (Strain/Indicator: TA98(1,8-DNP6), Metabolic Activation: RAT, LIVER, S-9, AROCLOR 1254, Method: PREINCUBATION): inactive; negative
- mutagenic call (Strain/Indicator: TA98(NR), Metabolic Activation: NONE, Method: PREINCUBATION): inactive; negative
- mutagenic call (Strain/Indicator: TA98(NR), Metabolic Activation: RAT, LIVER, S-9, AROCLOR 1254, Method: PREINCUBATION): inactive; negative
- mutagenic call [4]: active; positive
- mutagenic call (Strain/Indicator: TA98, Metabolic Activation: RAT, LIVER, S-9, AROCLOR 1254, Method: PREINCUBATION): active; positive
- mutagenic call (Strain/Indicator: TA100(NR), Metabolic Activation: NONE, Method: PREINCUBATION): inactive; negative
- mutagenic call (Strain/Indicator: TA100(NR), Metabolic Activation: RAT, LIVER, S-9, AROCLOR 1254, Method: PREINCUBATION): active; positive
- mutagenic call [1]: active; positive
- mutagenic call (Strain/Indicator: TA100, Metabolic Activation: RAT, LIVER, S-9, AROCLOR 1254, Method: PREINCUBATION): active; positive

Structure (SMILES): CC(C)=CCCC(C)CCO (configuration not stated)
- mutagenic call (Strain/Indicator: TA98, Metabolic Activation: NONE, Method: STANDARD PLATE): inactive; negative
- mutagenic call (Strain/Indicator: TA98, Metabolic Activation: S-9, Method: STANDARD PLATE): inactive; negative
- mutagenic call [2]: inactive; negative
